In assay [1] the target is T1, Glucosylceramidase (Bos taurus) (UniProt Q2KHZ8).
T1 sequence (whole entry): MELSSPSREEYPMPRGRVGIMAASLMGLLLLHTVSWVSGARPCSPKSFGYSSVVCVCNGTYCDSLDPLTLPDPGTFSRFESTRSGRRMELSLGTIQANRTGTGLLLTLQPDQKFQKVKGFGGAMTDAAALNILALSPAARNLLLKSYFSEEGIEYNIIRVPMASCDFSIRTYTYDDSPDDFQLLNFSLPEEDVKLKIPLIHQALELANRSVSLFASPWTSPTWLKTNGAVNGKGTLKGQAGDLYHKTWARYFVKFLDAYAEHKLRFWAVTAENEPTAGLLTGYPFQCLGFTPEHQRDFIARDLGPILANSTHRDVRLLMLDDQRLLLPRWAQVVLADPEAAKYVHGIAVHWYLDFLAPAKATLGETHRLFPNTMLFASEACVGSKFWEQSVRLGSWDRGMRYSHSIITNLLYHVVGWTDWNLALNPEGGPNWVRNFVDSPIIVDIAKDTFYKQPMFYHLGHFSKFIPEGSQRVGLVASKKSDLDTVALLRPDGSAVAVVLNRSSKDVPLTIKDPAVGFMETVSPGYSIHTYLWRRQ
Nature of the assay: Inhibition of bovine liver beta-glucosidase at 1000 uM.

For assay [2], the target named is T2, Beta-glucuronidase (Bos taurus) (UniProt A3KMY8).
T2 sequence (whole entry): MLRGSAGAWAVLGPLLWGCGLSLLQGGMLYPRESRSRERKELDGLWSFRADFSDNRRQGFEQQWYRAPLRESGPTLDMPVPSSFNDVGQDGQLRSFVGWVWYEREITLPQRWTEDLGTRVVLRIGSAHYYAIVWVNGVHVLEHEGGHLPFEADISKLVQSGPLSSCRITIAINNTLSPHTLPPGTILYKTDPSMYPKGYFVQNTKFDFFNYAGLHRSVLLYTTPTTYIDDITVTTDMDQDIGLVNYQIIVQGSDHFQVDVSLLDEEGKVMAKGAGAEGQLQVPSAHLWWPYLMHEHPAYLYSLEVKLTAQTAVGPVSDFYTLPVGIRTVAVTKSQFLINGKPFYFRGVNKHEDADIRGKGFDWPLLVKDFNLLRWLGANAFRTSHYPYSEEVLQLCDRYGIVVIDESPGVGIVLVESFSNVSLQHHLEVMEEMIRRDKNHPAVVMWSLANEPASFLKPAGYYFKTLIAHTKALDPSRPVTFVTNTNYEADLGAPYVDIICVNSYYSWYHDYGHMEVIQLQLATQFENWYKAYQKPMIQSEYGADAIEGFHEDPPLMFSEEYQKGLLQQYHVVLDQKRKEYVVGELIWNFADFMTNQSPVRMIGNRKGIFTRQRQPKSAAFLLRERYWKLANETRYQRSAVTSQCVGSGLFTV
Kind of assay: Inhibition of bovine liver beta-glucuronidase at 1000 uM.

The subject of another assay is Helix pomatia. Kind of assay: Inhibition of snail beta-mannosidase at 1000 uM.
A further assay deals with Aspergillus niger. Nature of the assay: Inhibition of Aspergillus niger beta-glucosidase at 1000 uM.
For assay [3], the target named is T3, Alpha-glucosidase (Aspergillus niger) (UniProt P56526).
T3 sequence (whole entry): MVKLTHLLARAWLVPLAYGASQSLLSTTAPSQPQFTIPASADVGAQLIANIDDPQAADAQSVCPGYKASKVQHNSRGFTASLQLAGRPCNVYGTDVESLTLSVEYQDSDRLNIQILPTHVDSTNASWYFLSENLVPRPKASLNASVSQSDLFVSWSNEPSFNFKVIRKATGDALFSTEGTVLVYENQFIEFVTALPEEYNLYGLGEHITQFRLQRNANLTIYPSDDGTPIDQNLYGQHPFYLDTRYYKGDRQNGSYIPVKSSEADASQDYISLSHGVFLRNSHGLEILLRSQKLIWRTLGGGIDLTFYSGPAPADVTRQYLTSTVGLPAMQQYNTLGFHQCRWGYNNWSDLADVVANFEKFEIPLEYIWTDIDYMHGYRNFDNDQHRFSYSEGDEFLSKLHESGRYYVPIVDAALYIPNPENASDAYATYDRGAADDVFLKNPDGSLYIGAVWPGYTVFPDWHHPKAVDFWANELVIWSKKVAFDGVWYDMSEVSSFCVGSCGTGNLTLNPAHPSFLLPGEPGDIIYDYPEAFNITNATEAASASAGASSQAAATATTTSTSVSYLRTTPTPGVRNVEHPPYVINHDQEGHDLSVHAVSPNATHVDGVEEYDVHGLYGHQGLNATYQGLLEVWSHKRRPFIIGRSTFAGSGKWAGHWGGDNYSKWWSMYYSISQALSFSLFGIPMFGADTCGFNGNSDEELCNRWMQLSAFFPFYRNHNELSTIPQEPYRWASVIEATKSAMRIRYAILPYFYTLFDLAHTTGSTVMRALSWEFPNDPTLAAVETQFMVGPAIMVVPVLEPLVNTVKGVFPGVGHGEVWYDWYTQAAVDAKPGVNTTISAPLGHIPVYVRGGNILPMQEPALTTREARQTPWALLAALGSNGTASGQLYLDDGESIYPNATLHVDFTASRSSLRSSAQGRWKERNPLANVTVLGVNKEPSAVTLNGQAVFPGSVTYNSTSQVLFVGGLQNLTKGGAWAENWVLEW
Kind of assay: Inhibition of Aspergillus niger alpha-glucosidase at 1000 uM.

The next assay concerns Escherichia coli. Nature of the assay: Inhibition of Escherichia coli beta-glucuronidase at 1000 uM.
For the next assay, the species on record is Sus scrofa. Nature of the assay: Inhibition of porcine kidney alpha,alpha-trehalase at 1000 uM.
In assay [4] the target is T4, Beta-galactosidase (Bos taurus) (UniProt Q58D55).
T4 sequence (whole entry): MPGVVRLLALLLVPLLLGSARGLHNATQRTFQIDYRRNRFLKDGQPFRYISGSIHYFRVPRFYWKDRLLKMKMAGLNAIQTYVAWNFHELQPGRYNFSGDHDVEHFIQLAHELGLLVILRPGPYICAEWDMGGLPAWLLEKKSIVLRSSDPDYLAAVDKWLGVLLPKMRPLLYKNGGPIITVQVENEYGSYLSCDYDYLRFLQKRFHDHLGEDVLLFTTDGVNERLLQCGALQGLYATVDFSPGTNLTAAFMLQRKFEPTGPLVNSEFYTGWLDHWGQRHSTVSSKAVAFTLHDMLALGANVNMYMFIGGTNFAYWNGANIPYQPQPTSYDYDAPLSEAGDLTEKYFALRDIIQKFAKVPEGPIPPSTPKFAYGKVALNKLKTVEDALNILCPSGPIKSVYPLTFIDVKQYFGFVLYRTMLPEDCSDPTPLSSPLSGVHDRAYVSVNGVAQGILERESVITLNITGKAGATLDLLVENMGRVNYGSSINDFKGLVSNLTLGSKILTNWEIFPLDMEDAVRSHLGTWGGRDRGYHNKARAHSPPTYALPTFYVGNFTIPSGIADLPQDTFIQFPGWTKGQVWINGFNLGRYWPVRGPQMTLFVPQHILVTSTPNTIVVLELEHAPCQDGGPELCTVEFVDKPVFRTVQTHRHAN
Nature of the assay: Inhibition of bovine liver beta-galactosidase at 1000 uM.

The next assay relates to Rhizopus. Kind of assay: Inhibition of rhizopus amyloglucosidase at 1000 uM.
A further assay relates to Prunus dulcis. Nature of the assay: Inhibition of almond beta-glucosidase at 1000 uM.

The text below walks through data of ChEMBL document CHEMBL2407027, “(3R,4S,5R,6R,7S)-3,4,5,7-Tetrahydroxyconidine, an azetidine analogue of 6,7-diepicastanospermine and a conformationally constrained d-deoxyaltronojirimycin, from l-arabinose” (Bioorg Med Chem, 2013).

As usually defined, the inhibition is the share of the control response that was lost under treatment. Higher therefore signals a strong effect.

Regarding `OC[C@H]1NC[C@@H](O)[C@H](O)[C@@H]1O`, the inhibition is 10.9% in assay [1]; 7.4% in assay [2]; 0% in the assay with Helix pomatia; 1.8% with Aspergillus niger; 19.1% in assay [3]; 0% in the assay with Escherichia coli. For the same molecule, the inhibition in the assay listed under Sus scrofa is 2.1%; in [4], 19.9%; in the assay on Rhizopus it was 7%; with Prunus dulcis it was 18.8%.
With `O=C1CC[C@H](O)[C@H]2[C@@H](O)CN12`, the inhibition is 14.9% in assay [1]; 4.2% in assay [2]; 0% with Helix pomatia; 1.2% in the assay on Aspergillus niger; 0% in assay [3]; 8.9% with Escherichia coli. Also, the inhibition in the assay filed under Sus scrofa worked out at 5.2%; in assay [4] it was 13.4%; in the assay with Rhizopus it was 3.8%; in the assay on Prunus dulcis, 0%.
